The numbers were not newly measured in US20090170816A1, “COMBINATION COMPRISING SQUALENE, A PHOSPHOLIPID AND AN OMEGA 3 FATTY ACID FOR THE TREATMENT OF CANCER” (FARMALEIS S.L., priority 2005, published 2009), which cites them from elsewhere.

The test system of one data set is Colon cancer. Conditions: Table 1, source Carcinogenesis vol. 19 no. 2 pp. 287-290, 1998.
The subject of data set [1] is chemically-induced lung tumours. The conditions noted are these: compared to animals not receiving squalene.

For `CC(C)=CCC/C(C)=C/CC/C(C)=C/CC/C=C(\C)CC/C=C(\C)CCC=C(C)C` [Squalene], in the data set on Colon cancer, the Survival percentage is given as 50% ^(1). Moreover, in data set [1], the incidence of tumours result is listed as “lower incidence of tumours”, the multiplicity of tumours entry is “lower multiplicity” and the volume of tumours result is “smaller volume”.
